Experiments:
[1] = test system: CT2A mouse gliomas; experiment: Immunophenotyping of tumor-infiltrating immune cells (flow cytometry); format: in vivo, C57BL/6 mice
Experimental: The effect of OBT on glioma immunomodulation in vivo was next evaluated. 50,000 CT2A cells expressing Fluc were implanted in the striatum of immunocompetent C57BL/6 mice. Two weeks post-injection, mice were i.p. injected with OBT (7.5 mg/kg body weight/day) or PBS/DMSO control, over 4 days (n=6/group). Mice were sacrificed, brains removed, and tumor tissues dissected out and homogenized. […] OBT increased intratumoral CD8+ cytotoxic T cells with higher levels of both Ki-67 and granzyme B (markers for increased activation of effector cells, abrogation of suppressive immune cells) and decreased CD4+ regulatory T cells (Treg; CD25^+Foxp3^+), typically used by the tumour to escape the immune system, leading to an increase in the ratio of CD8+ T cells over Tregs (FIG. 25B-D). […] CTLA-4, PD-1, Lag-3 and Tim-3 levels (hallmark for exhausted and anergic T cells) were not changed on any of these cells (FIG. 25B; only showing PD-1).

[2] = test system: patient-derived GBM8 GSC tumors; experiment: FDG-PET imaging of orthotopic GSC brain tumors; format: in vivo, mice; details: 3 doses of 10 mg/kg within 24 h, imaged 4 h after last dose; tumor to muscle ratio
Source text: In vivo Tumor Models: Animal experiments performed by our laboratory were approved by the Massachusetts General Hospital Subcommittee on Research Animal Care. Female athymic nude mice (6-8 weeks) were used in all studies with the exception of pharmacokinetics analysis. For brain tumors xenograft model, GBM8 cells (1×10^5 cells/mouse) stably expressing Fluc were stereotactically implanted into the left striatum of animals. Following implantation, animals were regularly imaged for Fluc to monitor brain tumor growth. To generate the breast cancer model, MDA-MB-231 cells (2.5×10^5 cells/mouse) expressing Fluc were mixed with Matrigel 1:1 (v/v) (BD Matrigel) and injected into the mammary fat pad of mice. Tris-OBT was dissolved in PBS and administered intraperitoneally. Tumor volumes were measured using a caliper and calculated according to the following formula: volume=(width)^2×length/2. […]
FDG-PET imaging: Mouse PET/CT scans (n=6, 3 per group) were performed sequentially using a custom-designed mouse bed and PET/CT gantry adapter. […] The same ROIs are then copied to the matching PET images for quantification of the ^18F-FDG PET signal as the standard uptake values (SUVs). […]

[3] = test system: U87 glioma cells; experiment: Cell viability (CellTiter-Glo), U87; format: cell-based, human; details: shKeap1 vs shCtr1, four days
Experimental: Cell culture: MDA-MB-231 and U87 (U87-MG) cells were obtained from the American Type Culture Collection (ATCC). 293T human embryonic kidney fibroblasts were provided by Dr. Xandra Breakefield (Massachusetts General Hospital). All three cell lines were grown in Dulbecco's modified Eagle medium supplemented with 10% fetal bovine serum (Gemini Bio-products), 100 U penicillin, and 0.1 mg/mL streptomycin (Sigma). All cells were maintained at 37° C. in a humidified 5% CO2 incubator. GSCs were obtained from tumor tissues of GBM patients following surgical resection, under approval from the corresponding Institutional Review Board. These cells have been previously characterized (ref. 37-39) and were maintained in culture as neurospheres in Neurobasal medium (Gibco) supplemented with heparin (2 μg/mL; Sigma) and recombinant EGF (20 ng/mL) and bFGF-2 (10 ng/mL; Peprotech). Human Astrocytes were obtained from ScienCell and cultured in Astrocytes Medium (ScienCell)
Cell viability: Cells were plated in 96-well plates and treated with the corresponding compounds. Cell viability was measured by adding 25 μl/well of CellTiter-Glo (Promega) followed by 10 minutes incubation and transfer to a white 96-well plate. Bioluminescence was quantified using Synergy HTX multimode reader (Biotek).

[4] = molecular target: Keap1 (Homo sapiens, UniProt Q14145); experiment: Differential alkylation mass spectrometry, Keap1; format: binding
Sequence of Keap1 (Q14145 whole entry, species assumed): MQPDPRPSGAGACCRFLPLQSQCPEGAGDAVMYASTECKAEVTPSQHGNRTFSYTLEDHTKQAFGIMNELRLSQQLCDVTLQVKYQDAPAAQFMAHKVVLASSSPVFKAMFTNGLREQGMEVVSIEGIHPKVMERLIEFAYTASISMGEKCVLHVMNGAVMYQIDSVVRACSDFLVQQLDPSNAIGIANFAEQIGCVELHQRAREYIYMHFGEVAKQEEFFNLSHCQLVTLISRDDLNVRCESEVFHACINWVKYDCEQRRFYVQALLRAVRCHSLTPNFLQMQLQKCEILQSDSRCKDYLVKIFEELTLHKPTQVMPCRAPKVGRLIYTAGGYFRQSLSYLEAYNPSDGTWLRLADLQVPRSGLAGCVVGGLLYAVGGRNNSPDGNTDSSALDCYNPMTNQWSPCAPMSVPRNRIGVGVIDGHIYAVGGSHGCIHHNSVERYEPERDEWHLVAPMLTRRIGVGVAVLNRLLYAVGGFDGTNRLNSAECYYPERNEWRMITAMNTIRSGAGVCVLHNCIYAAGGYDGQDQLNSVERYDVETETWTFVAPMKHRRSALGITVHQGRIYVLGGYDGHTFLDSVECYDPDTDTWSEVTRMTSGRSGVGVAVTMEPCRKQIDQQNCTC

COC1=CC(=O)C(O)=C/C1=C/C=C/c1ccccc1 [OBT, (Z)-2-hydroxy-5-methoxy-4-((E)-3-phenylallylidene)cyclohexa-2,5-dien-1-one]
CD4+ regulatory T cells (Treg; CD25+Foxp3+) ([1]; 7.5 mg/kg/day i.p. over 4 days): decreased
Ki-67 and granzyme B in CD8+ T cells ([1]; 7.5 mg/kg/day i.p. over 4 days): higher levels
dendritic cells ([1]; 7.5 mg/kg/day i.p. over 4 days): significant increase
intratumoral CD8+ cytotoxic T cells ([1]; 7.5 mg/kg/day i.p. over 4 days): increased
levels of CD4+ T cells ([1]; 7.5 mg/kg/day i.p. over 4 days): did not change
number of microglia and macrophages ([1]; 7.5 mg/kg/day i.p. over 4 days): not changed
ratio of CD8+ T cells over Tregs ([1]; 7.5 mg/kg/day i.p. over 4 days): increase
CTLA-4, PD-1, Lag-3 and Tim-3 levels ([1]; T cells): not changed
CD47 ([1]; on all three cell types): significantly downregulated
PD-L1 ([1]; on microglia, dendritic cells, macrophages): did not have an effect
decrease in FDG tumor uptake [2]: ~50%
cell death after silencing of Keap1 [3]: decreased cell death
reversibility of modification at Cys151 and Cys434 ([4]; Cys151 BTB domain, Cys434 Kelch domain): partially reversible
covalent binding to cysteine sites of Keap1 ([4]; differential alkylation): bind covalently to all identified cysteine sites

— patent US12521439B2, “Methods and materials for modulating Nrf2 pathway” (The General Hospital Corporation, priority 2019, dated 2026)
